Publication PMC7179434, “1,2,4-Triazolo[1,5-a]pyrimidines as a Novel Class of Inhibitors of the HIV-1 Reverse Transcriptase-Associated Ribonuclease H Activity” (Molecules, 2020)
“Also recorded” adds a separate entry of the source. Like-named read-outs stand apart in the source and are kept apart here.

How the values were obtained:
HIV-1 RDDP = tested on: HIV-1 RDDP; parameters: method as in ref 17-21, 27-29 (per compound as in Figure 1 legend); conditions: known allosteric RNHIs; 27-29 (per compound as in Figure 1 legend); cited from earlier work
HIV-1 RNase H = biological target: HIV-1 RNase H; parameters: method as in ref 17-25, 27-29 (per compound as in Figure 1 legend); conditions: known allosteric RNHIs; 27-29 (per compound as in Figure 1 legend); cited from earlier work
HIV-1 replication = conditions: 28 (per compound as in Figure 1 legend); cited from earlier work
[1] = biological target: HIV-1 RT-associated RNase H (Human immunodeficiency virus type 1 group M subtype B, UniProt P03366); assay: biochemical; type: biochemical
HIV-1 RT-associated RDDP = HIV-1 RT-associated RDDP (Human immunodeficiency virus type 1 group M subtype B, UniProt P03366); assay: biochemical; type: biochemical
HIV-1 (IIIB strain) = type: cell-based; conditions: acutely infected MT-4 cells
HIV-2 (ROD strain) = assay: Anti-HIV-2 activity in acutely infected MT-4 cells (MTT); type: cell-based
[2] = wt RT, average and standard deviation of three independent experiments in duplicate

O=C(O)c1ccc(-c2cccc(/C=N/NC(=O)c3ccc(O)c(O)c3)c2)cc1 [Compound 2]
IC50 (HIV-1 RDDP): > 50 µM
IC50 (HIV-1 RNase H): 0.4 µM

O=C1Nc2ccccc2/C1=N\Nc1nc(-c2ccc(O)c(O)c2)cs1 [Compound 3]
IC50 (HIV-1 RDDP): 1.4 µM
EC50 (HIV-1 replication) (HIV-1 replication): not active
IC50 (HIV-1 RNase H): 2 µM

N#Cc1ccc(-c2csc(N/N=C3/C(=O)Nc4ccccc43)n2)cc1 [Compound 4]
IC50 (HIV-1 RDDP): 9.8 µM
IC50 (HIV-1 RNase H): 1.3 µM

Cc1sc2nc(-c3ccc([N+](=O)[O-])cc3)[nH]c(=O)c2c1C [Compound 6]
IC50 (HIV-1 RNase H): 0.85 µM

O=C(Nc1sc2c(c1C(=O)Nc1ccccn1)CCCCC2)c1ccc(O)c(O)c1 [Compound 8]
IC50 (HIV-1 RDDP): 20.9 µM
EC50 (HIV-1 replication) (HIV-1 replication): not active
IC50 (HIV-1 RNase H): 0.84 µM

O=c1oc(-c2ccc(O)c(O)c2)nc2sc3ccccc3c12 [Compound 9]
IC50 (HIV-1 RDDP): 2.9 µM
EC50 (HIV-1 replication) (HIV-1 replication): not active
IC50 (HIV-1 RNase H): 0.53 µM

CCCCCCCC/C=C\CCCCCCCCNC(=O)/C=C/c1ccc(O)c(O)c1 [Compound 10]
IC50 (HIV-1 RDDP): 2.3 µM
IC50 (HIV-1 RNase H): 0.68 µM

CCCCOc1ccc(C(=O)Nc2nc3n(n2)C(c2ccccc2)C=C(C)N3)cc1 (centres unmarked) [Compound 11a]
IC50 [1]: 17.7 ± 2.7 µM
IC50 (HIV-1 RT-associated RDDP): > 100 µM

CCCCc1ccc(C(=O)Nc2nc3n(n2)C(c2ccccc2)C=C(C)N3)cc1 (centres unmarked) [Compound 11b]
IC50 [1]: 13.1 ± 2.2 µM
anti-HIV-1 (IIIB strain) activity (HIV-1 (IIIB strain)): none of the compounds having RNase H inhibition showed anti-HIV activity at concentrations lower than those cytotoxic
anti-HIV-2 (ROD strain) activity (HIV-2 (ROD strain)): none of the compounds having RNase H inhibition showed anti-HIV activity at concentrations lower than those cytotoxic
IC50 (HIV-1 RT-associated RDDP): > 100 µM

CCCCc1ccc(C(=O)Nc2nc3nc(C)cc(-c4ccccc4)n3n2)cc1 [Compound 12b, 4-Butyl-N-(5-methyl-7-phenyl-[1,2,4]triazolo[1,5-a]pyrimidin-2-yl)benzamide]
IC50 [1]: 12.3 ± 1.5 µM
melting point: 157 to 158 °C
IC50 (HIV-1 RT-associated RDDP): > 100 µM

Cc1cc(-c2ccccc2)n2nc(NC(=O)c3ccccc3F)nc2n1 [Compound 12c, 2-Fluoro-N-(5-methyl-7-phenyl[1,2,4]triazolo[1,5-a]pyrimidin-2-yl)benzamide]
IC50 [1]: > 100 µM
melting point: 292 to 302 °C
IC50 (HIV-1 RT-associated RDDP): > 100 µM

Cc1cc(-c2ccccc2)n2nc(NC(=O)c3ccc([N+](=O)[O-])cc3)nc2n1 [Compound 12d, N-(5-Methyl-7-phenyl-[1,2,4]triazolo[1,5-a]pyrimidin-2-yl)-4-nitrobenzamide]
IC50 [1]: > 100 µM
melting point: 290 to 293 °C
IC50 (HIV-1 RT-associated RDDP): > 100 µM

Cc1cc(-c2ccccc2)n2nc(NC(=O)c3ccc(N)cc3)nc2n1 [Compound 12e, 4-Amino-N-(5-methyl-7-phenyl-[1,2,4]triazolo[1,5-a]pyrimidin-2-yl)benzamide]
IC50 [1]: > 100 µM
melting point: 179 to 202 °C
IC50 (HIV-1 RT-associated RDDP): > 100 µM

COc1ccc(C(=O)Nc2nc3nc(C)cc(-c4ccccc4)n3n2)cc1OC [Compound 12f, 3,4-Dimethoxy-N-(5-methyl-7-phenyl-[1,2,4]triazolo[1,5-a]pyrimidin-2-yl)benzamide]
IC50 [1]: > 100 µM
melting point: 131 to 151 °C
IC50 (HIV-1 RT-associated RDDP): > 100 µM

Cc1cc(-c2ccccc2)nc2nc(NC(=O)c3ccccc3F)nn12 [Compound 13c, 2-Fluoro-N-(7-methyl-5-phenyl-[1,2,4]triazolo[1,5-a]pyrimidin-2-yl)benzamide]
IC50 [1]: > 100 µM
melting point: 165 to 169 °C
IC50 (HIV-1 RT-associated RDDP): > 100 µM

Cc1cc(-c2ccccc2)nc2nc(NC(=O)c3ccc([N+](=O)[O-])cc3)nn12 [Compound 13d, N-(7-Methyl-5-phenyl-[1,2,4]triazolo[1,5-a]pyrimidin-2-yl)-4-nitrobenzamide]
IC50 [1]: 60.1 ± 3.3 µM
melting point: 316 to 318 °C
IC50 (HIV-1 RT-associated RDDP): > 100 µM

Cc1cc(-c2ccccc2)nc2nc(NC(=O)c3ccc(N)cc3)nn12 [Compound 13e, 4-Amino-N-(7-methyl-5-phenyl-[1,2,4]triazolo[1,5-a]pyrimidin-2-yl)benzamide]
IC50 [1]: > 100 µM
melting point: 318 to 319 °C
IC50 (HIV-1 RT-associated RDDP): > 100 µM

COc1ccc(C(=O)Nc2nc3nc(-c4ccccc4)cc(C)n3n2)cc1OC [Compound 13f, 3,4-Dimethoxy-N-(7-methyl-5-phenyl-[1,2,4]triazolo[1,5-a]pyrimidin-2-yl)benzamide]
IC50 [1]: > 100 µM
melting point: 175 to 179 °C
IC50 (HIV-1 RT-associated RDDP): > 100 µM

Cc1cc(-c2ccccc2)nc2nc(NC(=O)c3ccc(O)c(O)c3)nn12 [Compound 13g, 3,4-Dihydroxy-N-(7-methyl-5-phenyl-[1,2,4]triazolo[1,5-a]pyrimidin-2-yl)benzamide]
IC50 [1]: 3.5 ± 1.5 µM
anti-HIV-1 (IIIB strain) activity (HIV-1 (IIIB strain)): none of the compounds having RNase H inhibition showed anti-HIV activity at concentrations lower than those cytotoxic
melting point: 298 to 312 °C
anti-HIV-2 (ROD strain) activity (HIV-2 (ROD strain)): none of the compounds having RNase H inhibition showed anti-HIV activity at concentrations lower than those cytotoxic
IC50 (HIV-1 RT-associated RDDP): > 100 µM

CCCCc1ccc(C(=O)Nc2nc3nc(C)cc(C)n3n2)cc1 [Compound 14b, 4-Butyl-N-(5,7-dimethyl-[1,2,4]triazolo[1,5-a]pyrimidin-2-yl)benzamide]
IC50 [1]: > 100 µM
HIV-1 RNaseH IC50 [1, 2]: complete loss of activity
melting point: 175 to 177 °C

Cc1cc(C)n2nc(NC(=O)c3ccccc3F)nc2n1 [Compound 14c, N-(5,7-Dimethyl-[1,2,4]triazolo[1,5-a]pyrimidin-2-yl)-2-fluorobenzamide]
IC50 [1]: > 100 µM
melting point: 195 to 200 °C
IC50 (HIV-1 RT-associated RDDP): > 100 µM

Cc1cc(C)n2nc(NC(=O)c3ccc([N+](=O)[O-])cc3)nc2n1 [Compound 14d, N-(5,7-Dimethyl-[1,2,4]triazolo[1,5-a]pyrimidin-2-yl)-4-nitrobenzamide]
IC50 [1]: > 100 µM
melting point: 273 to 276 °C
IC50 (HIV-1 RT-associated RDDP): > 100 µM

Cc1cc(C)n2nc(NC(=O)c3ccc(N)cc3)nc2n1 [Compound 14e, 4-Amino-N-(5,7-dimethyl-[1,2,4]triazolo[1,5-a]pyrimidin-2-yl)benzamide]
IC50 [1]: > 100 µM
melting point: 248 to 258 °C
IC50 (HIV-1 RT-associated RDDP): > 100 µM

COc1ccc(C(=O)Nc2nc3nc(C)cc(C)n3n2)cc1OC [Compound 14f, N-(5,7-Dimethyl-[1,2,4]triazolo[1,5-a]pyrimidin-2-yl)-3,4-dimethoxybenzamide]
IC50 [1]: > 100 µM
melting point: 190 to 194 °C
IC50 (HIV-1 RT-associated RDDP): > 100 µM

Cc1cc(C)n2nc(NC(=O)c3ccc(O)c(O)c3)nc2n1 [Compound 14g, N-(5,7-Dimethyl-[1,2,4]triazolo[1,5-a]pyrimidin-2-yl)-3,4-dihydroxybenzamide]
IC50 [1]: 6.23 ± 0.01 µM
melting point: 299 to 301 °C
IC50 (HIV-1 RT-associated RDDP): > 100 µM

O=C(Nc1nc2nc(-c3ccccc3)cc(-c3ccccc3)n2n1)c1ccc(O)c(O)c1 [Compound 15g, N-(5,7-diphenyl-[1,2,4]triazolo[1,5-a]pyrimidin-2-yl)-3,4-dihydroxybenzamide]
IC50 [1]: 1.86 ± 0.54 µM
anti-HIV-1 (IIIB strain) activity (HIV-1 (IIIB strain)): none of the compounds having RNase H inhibition showed anti-HIV activity at concentrations lower than those cytotoxic
melting point: 258 to 260 °C
anti-HIV-2 (ROD strain) activity (HIV-2 (ROD strain)): none of the compounds having RNase H inhibition showed anti-HIV activity at concentrations lower than those cytotoxic
IC50 (HIV-1 RT-associated RDDP): 20.5 ± 4.1 µM
fold weaker potency against RDDP than against RNase H (HIV-1 RT-associated RDDP; RDDP IC50 vs RNase H IC50): 10 fold

COc1ccc(-c2cc(C)nc3nc(N(C(=O)c4ccccc4)C(=O)c4ccccc4)nn23)cc1OC [Compound 16hh, N-benzoyl-N-(7-(3,4-dimethoxyphenyl)-5-methyl-[1,2,4]triazolo[1,5-a]pyrimidin-2-yl)benzamide]
IC50 [1]: 6.74 ± 0.55 µM
HIV-1 RNaseH IC50 [1, 2]: low micromolar range
IC50 (HIV-1 RT-associated RDDP): > 100 µM

Cc1cc(-c2ccc(O)c(O)c2)n2nc(NC(=O)c3ccccc3)nc2n1 [Compound 17h, N-(7-(3,4-dihydroxyphenyl)-5-methyl-[1,2,4]triazolo[1,5-a]pyrimidin-2-yl)benzamide]
IC50 [1]: 1.13 ± 0.33 µM
anti-HIV-1 (IIIB strain) activity (HIV-1 (IIIB strain)): none of the compounds having RNase H inhibition showed anti-HIV activity at concentrations lower than those cytotoxic
melting point: 260 to 263 °C
anti-HIV-2 (ROD strain) activity (HIV-2 (ROD strain)): none of the compounds having RNase H inhibition showed anti-HIV activity at concentrations lower than those cytotoxic
IC50 (HIV-1 RT-associated RDDP): > 100 µM

Cc1cc(-c2ccccc2)n2nc(C(=O)Nc3ccc(O)c(O)c3)nc2n1 [Compound 18g, N-(3,4-Dihydroxyphenyl)-5-methyl-7-phenyl-[1,2,4]triazolo[1,5-a]pyrimidine-2-carboxamide]
IC50 [1]: 0.41 ± 0.005 µM
anti-HIV-1 (IIIB strain) activity (HIV-1 (IIIB strain)): did not result in anti-HIV-1 activity in cellular context; also recorded: none of the compounds having RNase H inhibition showed anti-HIV activity at concentrations lower than those cytotoxic
melting point: 278 to 281 °C
anti-HIV-2 (ROD strain) activity (HIV-2 (ROD strain)): none of the compounds having RNase H inhibition showed anti-HIV activity at concentrations lower than those cytotoxic
IC50 (HIV-1 RT-associated RDDP): > 100 µM

Cc1cc(-c2ccccc2)nc2nc(C(=O)Nc3ccc(O)c(O)c3)nn12 [Compound 19g, N-(3,4-Dihydroxyphenyl)-7-methyl-5-phenyl-[1,2,4]triazolo[1,5-a]pyrimidine-2-carboxamide]
IC50 [1]: 43.1 ± 2.1 µM
HIV-1 RNaseH IC50 [1, 2]: markedly decreased anti-RNase H activity
melting point: 247 to 250 °C

CCOC(=O)C(=O)CC(=O)C=Cc1cccn1Cc1ccc(F)cc1 [RDS1643, reference compound]
IC50 ([1]; wt RT, average and standard deviation of three independent experiments in duplicate, read-out: HIV-1 RNaseH IC50): 9 ± 2 µM
